Reference: US20150165756A1, “STENCILS” (DTG International GmbH, priority 2011, published 2015)
Converted amounts (≈) assume the structure as drawn.

How the values were obtained:
Format in all cases: physicochemical
[1] = Maximal solubility in oily components (mixing, PTFE filtration, HPLC analysis); conditions: oil or lipid, thermodynamic from solid
Protocol: As pyrazolopyrimidine component, (6-Bromo-pyrazolo[1,5-a]-pyrimidine-2-yl)-(1(R)-methyl-3,4-dihydro-1H-isoquinoline-2-yl)-methanone was formulated with various oily components with higher concentrations of the drug substance using specific amounts of oily components (C). The following compositions were prepared by mixing the respective oily component (C) and the pyrazolopyrimidine compound, followed by filtration (PTFE-filter) and then analysis by High Performance Liquid Chromatography.
A liquid mixture was prepared by using 100 g of soybean oil and 100 g of MCT. The soybean oil is commercially available by Caelo (Caesar & Lorenz GmbH, Hilden, Germany). The component MCT is also commercially available (e.g. by Caelo). The solubility of compound (A) in this 50:50 (w/w) mixture of two oily components (C1) and (C2) was tested. Three different compositions were prepared (containing 1 mg/ml, 1.5 mg/ml and 2.0 mg/ml) of compound (A).

[2] = Solubility of compound (A) in aqueous media; conditions: room temperature
Protocol: (6-Bromo-pyrazolo[1,5-a]pyrimidine-2-yl)-(1(R)-methyl-3,4-dihydro-1H-isoquinoline-2-yl)-methanone, and which is of particular interest and has the formula (A) as described above. This compound (A) is the R-enantiomer, but both isomers (R and S) were prepared by classical chemical synthesis. The compound (A) was tested in various compositions (formulations) inter alia for CNS-applications. The compound (A) is a small molecule having a molecular weight of about 360 g/Mol, but is very little soluble in aqueous media at room temperature (about 0.001 to 0.01 mg/ml).

[3] = Octanol/water partition coefficient (log P)
Source text: The octanol/water partition coefficient (log P) of the compounds tested according to this invention can e.g. be determined by accepted standard methods, such as OECD guideline (July 1995), “Test No. 107: Partition Coefficient (n-octanol/water): Shake Flask Method”, OECD Guidelines for the Testing of Chemicals, Section 1: Physical-Chemical properties, OECD Publishing. The log P value may also be determined according to the Draft OECD guideline OECD (2000), see OECD Draft guideline for the Testing of Chemicals: 122 Partition Coefficient (n-Octanol/Water): pH-Metric Method for Ionisable Substances.
Compound (A) can be formulated together with various oily components (C) as aqueous based, liquid compositions with higher concentration of the drug substance. These formulations can be easily applied to different animal species and human beings via application routes like the parenteral route. The compound (A) is a lipophilic compound with limited wettability and solubility in aqueous media. The lipophilicity can be expressed by the log P value, which is approximately 3 for compound (A).

[4] = Stability of emulsions with soybean oil/MCT oily component (Example 3); conditions: oily component comprising soybean oil and MCT
Protocol: The oily phase containing the compound (A) was then mixed with an emulsifier (1%-3% by weight) of e.g. Lipoid S 75 Lipoid GmbH Germany, and afterwards with the aqueous phase containing a small amount (2.5% by weight) of a tonicity adjusting agent (Glycerol).
Different compositions were prepared containing about 10% to 20% of the oily component (C) and about 70 to 90% of water. These compositions were mixed by using an Ultra-Turrax-homogenizer followed by one to 10 cycles of high pressure homogenisation. These emulsions prepared are then characterized by microscopic analysis and by dynamic light-scattering methods (Horiba LB 500). Furthermore, laser diffraction experiments were made with the emulsions ([…]) and electro-acoustic experiments were performed (Dispersion Technology DT 300; Malvern Zetasizer Nano ZS).
By using the above-mentioned oily component (comprising soybean oil and MCT), it was possible to prepare stable emulsions of compound (A) containing up to 2 mg of compound (A) per ml of the emulsion. The stability of the emulsions prepared with compound (A) can be described by the Zeta-function which describes the degree of repulsion of particles having similar charges. The Zeta-potential of the emulsions were tested by acoustic and optical methods described in the literature.

solubility ([1]; 50:50 (w/w) mixture of soybean oil and MCT, read-out: maximum solubility in mixture of oily components): 8000 µg/mL (≈ 21.5 mM)
solubility ([1]; 25° C., MCT, read-out: maximal solubility in MCT): 12000 µg/mL (≈ 32.3 mM)
solubility ([1]; 25° C., castor oil, read-out: maximal solubility in castor oil): 47000 µg/mL (≈ 127 mM)
solubility ([1]; 25° C., olive oil, read-out: maximal solubility in olive oil): 6000 µg/mL (≈ 16.2 mM)
solubility ([1]; 25° C., soybean oil, read-out: maximal solubility in soybean oil): 7000 µg/mL (≈ 18.9 mM)
solubility [2]: 1 to 10 µg/mL (≈ 0.00269 to 0.0269 mM)
logP [3]: ~3
content of compound (A) in stable emulsions [4]: up to 2 mg per ml
SMILES: C[C@@H]1c2ccccc2CCN1C(=O)c1cc2ncc(Br)cn2n1 [Compound (A), (6-Bromo-pyrazolo[1,5-a]pyrimidine-2-yl)-(1(R)-methyl-3,4-dihydro-1H-isoquinoline-2-yl)-methanone]
